Series [1] deals with T1, human progesterone receptor A (Homo sapiens, UniProt P06401).
T1 construct: expressed in transfected cells; host or cells: SK-N-MC human neuroblastoma cells, stably transfected with pRChPR-A-neo and pMMTV-LUC
T1 sequence (P06401 1-769 isoform P06401-2): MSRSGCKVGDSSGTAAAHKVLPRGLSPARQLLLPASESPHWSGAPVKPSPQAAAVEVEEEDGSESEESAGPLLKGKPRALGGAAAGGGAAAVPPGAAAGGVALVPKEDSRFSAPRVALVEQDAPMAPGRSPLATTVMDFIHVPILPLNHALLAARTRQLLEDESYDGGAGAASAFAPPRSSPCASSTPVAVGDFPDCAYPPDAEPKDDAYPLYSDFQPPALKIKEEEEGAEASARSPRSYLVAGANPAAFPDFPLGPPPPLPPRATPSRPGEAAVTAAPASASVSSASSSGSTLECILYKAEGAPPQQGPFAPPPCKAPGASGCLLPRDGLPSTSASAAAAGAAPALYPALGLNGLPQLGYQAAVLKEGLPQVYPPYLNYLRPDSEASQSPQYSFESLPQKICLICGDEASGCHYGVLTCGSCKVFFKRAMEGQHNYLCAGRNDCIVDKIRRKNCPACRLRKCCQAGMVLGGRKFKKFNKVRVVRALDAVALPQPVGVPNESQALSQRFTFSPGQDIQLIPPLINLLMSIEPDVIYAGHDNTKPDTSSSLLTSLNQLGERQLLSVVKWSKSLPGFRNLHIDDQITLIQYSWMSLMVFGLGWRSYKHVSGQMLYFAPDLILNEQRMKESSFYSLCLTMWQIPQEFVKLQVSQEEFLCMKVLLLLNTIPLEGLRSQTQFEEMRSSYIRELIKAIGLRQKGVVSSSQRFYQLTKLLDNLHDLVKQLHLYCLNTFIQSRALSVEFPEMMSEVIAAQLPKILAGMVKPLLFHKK
Nature of the series: Progesterone receptor-antagonistic action in stably transfected SK-N-MC cells, MMTV-LUC reporter (PR-A). It is filed as cell-based. Conditions: antagonistic potency vs 0.1 nmol/l promegestone, 24 hours. The essentials:
(§1)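 Stably transfected SK-N-MC cells express human PR-B or PR-A plus MMTV-LUC. For antagonism they were co-treated with 0.1 nmol/l promegestone and compound (0.01 nmol/l upward) for 24 hours. Luciferase in lysates was read as RLU and reported as % efficacy and IC50.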

The target in series [2] is T2, human progesterone receptor B (Homo sapiens, UniProt P06401).
T2 construct: expressed in transfected cells; host or cells: SK-N-MC human neuroblastoma cells, stably transfected with pRChPR-B-neo and pMMTV-LUC
T2 sequence (P06401 1-933): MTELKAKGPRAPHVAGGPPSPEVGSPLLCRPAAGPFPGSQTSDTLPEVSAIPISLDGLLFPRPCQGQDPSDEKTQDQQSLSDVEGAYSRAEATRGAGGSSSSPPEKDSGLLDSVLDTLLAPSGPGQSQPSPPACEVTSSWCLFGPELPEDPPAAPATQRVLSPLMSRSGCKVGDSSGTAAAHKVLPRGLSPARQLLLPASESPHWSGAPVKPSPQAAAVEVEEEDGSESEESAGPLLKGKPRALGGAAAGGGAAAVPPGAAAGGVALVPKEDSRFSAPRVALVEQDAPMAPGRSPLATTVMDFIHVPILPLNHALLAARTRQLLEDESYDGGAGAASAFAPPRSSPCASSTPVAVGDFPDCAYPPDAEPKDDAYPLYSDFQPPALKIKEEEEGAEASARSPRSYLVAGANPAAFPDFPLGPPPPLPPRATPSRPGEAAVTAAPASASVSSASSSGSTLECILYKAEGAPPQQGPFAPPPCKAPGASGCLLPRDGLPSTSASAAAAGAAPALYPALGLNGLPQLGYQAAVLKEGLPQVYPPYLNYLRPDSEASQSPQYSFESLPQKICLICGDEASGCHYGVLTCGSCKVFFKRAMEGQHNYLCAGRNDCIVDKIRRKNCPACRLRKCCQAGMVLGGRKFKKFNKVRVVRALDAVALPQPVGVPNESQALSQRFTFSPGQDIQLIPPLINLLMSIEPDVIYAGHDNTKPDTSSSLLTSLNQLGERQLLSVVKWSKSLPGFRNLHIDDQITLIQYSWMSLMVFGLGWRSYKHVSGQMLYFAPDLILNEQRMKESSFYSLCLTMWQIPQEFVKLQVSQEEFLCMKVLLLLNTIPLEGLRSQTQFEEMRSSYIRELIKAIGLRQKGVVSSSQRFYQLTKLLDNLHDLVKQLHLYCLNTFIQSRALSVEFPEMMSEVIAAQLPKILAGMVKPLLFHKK
Nature of the series: Progesterone receptor-antagonistic action in stably transfected SK-N-MC cells, MMTV-LUC reporter (PR-B). Conditions: antagonistic potency vs 0.1 nmol/l promegestone, 24 hours. Format: cell-based. The essentials: as §1

The nature of series [3]: Metabolic stability in human liver microsomes. It is filed as in vitro ADME. Conditions: calculated from liver microsome clearance. As for the experimental part:
(§2) Determination of Metabolic Stability in Human and Rat Liver Microsomes
Isolated human liver microsomes (HLM) were used to assess the metabolic stability of compounds of general formula I.
(§3) The incubations were conducted with 2.4 ml of HLM solution (protein content 0.5 mg/ml), 30 μl of the test compound (final concentration 1 μM) and 0.6 ml of the cofactor mixture (=NADPH-generating system composed of 3 IU glucose-6-phosphate dehydrogenase, 14.6 mg glucose-6-phosphate, 1.2 mg NADP) at 37° C. in 100 mM phosphate buffer at pH 7.4. Samples were taken at 6 time points (2-60 min) and precipitated with an equal volume of methanol, and the recovery of the test substances used in the supernatant was determined by LC-MS/MS analysis. The half-life of substance degradation determined therefrom was used to calculate what is called the intrinsic clearance of the substance in the liver microsome preparation. […] In addition, under the assumptions that (i) absorption of the test substance is 100%, and (ii) the first pass is completely reflected by liver microsome metabolism, a maximum oral bioavailability (Fmax) was calculated.

Series [4] can be described thus: Metabolic stability in rat liver microsomes. Conditions: calculated from liver microsome clearance. It is filed as in vitro ADME. As to the method: as §2, §3

These results are taken from patent US9206219B2, “17-hydroxy-17-pentafluorethyl-estra-4,9(10)-dien-11-aryl derivatives, methods for the production thereof and the use thereof for treating diseases” (Bayer Intellectual Property GmbH, priority 2009, dated 2015).

As for `CC1(c2ccc([C@H]3C[C@@]4(C)[C@@H](CC[C@@]4(O)C(F)(F)C(F)(F)F)[C@@H]4CCC5=CC(=O)CCC5=C43)cc2)CC1` [Example 4, (8S,11R,13S,14S,17S)-17-hydroxy-13-methyl-11-[4-(1-methylcyclopropyl)phenyl]-17-pentafluoroethyl-1,2,6,7,8,11,12,13,14,15,16,17-dodecahydrocyclopenta[a]phenanthren-3-one], the IC50 in series [1] and in series [2] was 12 pM in each case. The “Predicted Fmax (maximum oral bioavailability)” value (from here on “Predicted Fmax”) was 37% in series [3] and 52% in series [4].
`CC(C)(O)c1ccc([C@H]2C[C@@]3(C)[C@@H](CC[C@@]3(O)C(F)(F)C(F)(F)F)[C@@H]3CCC4=CC(=O)CCC4=C32)cc1` [Example 5, (8S,11R,13S,14S,17S)-17-hydroxy-11-[4-(1-hydroxy-1-methylethyl)phenyl]-13-methyl-17-pentafluoroethyl-1,2,6,7,8,11,12,13,14,15,16,17-dodecahydrocyclopenta[a]phenanthren-3-one]: the half-maximal inhibitory concentration (IC50) in series [1] stood at 16 pM; in series [2] it was 90 pM. Moreover, the “Predicted Fmax” value is listed as 44% in series [3] and 52% in series [4].
As to `CC(CO)(CO)c1ccc([C@H]2C[C@@]3(C)[C@@H](CC[C@@]3(O)C(F)(F)C(F)(F)F)[C@@H]3CCC4=CC(=O)CCC4=C32)cc1` [Example 15A, (8S,11R,13S,14S,17S)-17-hydroxy-11-[4-(2-hydroxy-1-hydroxymethyl-1-methylethyl)phenyl]-13-methyl-17-pentafluoroethyl-1,2,6,7,8,11,12,13,14,15,16,17-dodecahydrocyclopenta[a]phenanthren-3-one], the values for the half-maximal inhibitory concentration (IC50) in series [1] and in series [2] were 90 pM and 100 pM, respectively. In addition, the “Predicted Fmax” value in series [3] is reported as 8.5%; in series [4] it was 59%.
The corresponding values for `CC1(C)OCC(C)(c2ccc([C@H]3C[C@@]4(C)[C@@H](CC[C@@]4(O)C(F)(F)C(F)(F)F)[C@@H]4CCC5=CC(=O)CCC5=C43)cc2)CO1` [Example 15B, (8S,11R,13S,14S,17S)-17-hydroxy-13-methyl-17-pentafluoroethyl-11-[4-(2,2,5-trimethyl-[1,3]dioxan-5-yl)phenyl]-1,2,6,7,8,11,12,13,14,15,16,17-dodecahydrocyclopenta[a]phenanthren-3-one] are 10 pM, 10 pM, 5.0% and 4.7%.
For `CCNC(=O)NCc1ccc([C@H]2C[C@@]3(C)C(CC[C@@]3(O)C(F)(F)C(F)(F)F)C3CCC4=CC(=O)CCC4=C32)cc1` (stereo partly drawn) [Example 17, 1-ethyl-3-[4-((8S,11R,13S,14S,17S)-17-hydroxy-13-methyl-3-oxo-17-pentafluoroethyl-2,3,6,7,8,11,12,13,14,15,16,17-dodecahydro-M-cyclopenta[a]phenanthren-11-yl)benzyl]urea], the values for the 50% inhibitory concentration (IC50) in series [1] and in series [2] were 400 pM and 800 pM, respectively. For the same compound, the “Predicted Fmax” value in series [4] is 63%.
The like results for `C[C@]12C[C@H](c3ccc(CNC(=O)NCc4ccccc4)cc3)C3=C4CCC(=O)C=C4CC[C@H]3[C@@H]1CC[C@@]2(O)C(F)(F)C(F)(F)F` [Example 23, 1-benzyl-3-[4-((8S,11R,13S,14S,17S)-17-hydroxy-13-methyl-3-oxo-17-pentafluoroethyl-2,3,6,7,8,11,12,13,14,15,16,17-dodecahydro-1H-cyclopenta[a]phenanthren-11-yl)benzyl]urea] were, in that order, 300 pM, 800 pM and 29%.
The corresponding values for `C[C@]12C[C@H](c3ccc(CNC(=O)Nc4ccccc4)cc3)C3=C4CCC(=O)C=C4CC[C@H]3[C@@H]1CC[C@@]2(O)C(F)(F)C(F)(F)F` [Example 24, 1-[4-((8S,11R,13S,14S,17S)-17-hydroxy-13-methyl-3-oxo-17-pentafluoroethyl-2,3,6,7,8,11,12,13,14,15,16,17-dodecahydro-1H-cyclopenta[a]phenanthren-11-yl)benzyl]-3-phenyl urea] are 400 pM, 500 pM and 77%.
In the case of `C[C@]12C[C@H](c3ccc(-c4ccc(-c5nnn[nH]5)cc4)cc3)C3=C4CCC(=O)C=C4CC[C@H]3[C@@H]1CC[C@@]2(O)C(F)(F)C(F)(F)F` [Example 29, (8S,11R,13S,14S,17S)-17-hydroxy-13-methyl-17-pentafluoroethyl-11-[4′-(1H-tetrazol-5-yl)biphenyl-4-yl]-1,2,6,7,8,11,12,13,14,15,16,17-dodecahydrocyclopenta[a]phenanthren-3-one], the IC50 was 300 pM in series [1] and 900 pM in series [2]. Besides, the results for the “Predicted Fmax” value in series [3] and in series [4] were 69% and 93%, respectively.
For `C[C@]12C[C@H](c3ccc(C#N)cc3)C3=C4CCC(=O)C=C4CC[C@H]3[C@@H]1CC[C@@]2(O)C(F)(F)C(F)(F)F` [Example 30, 4-((8S,11R,13S,14S,17S)-17-hydroxy-13-methyl-3-oxo-17-pentafluoroethyl-2,3,6,7,8,11,12,13,14,15,16,17-dodecahydro-1H-cyclopenta[a]phenanthren-11-yl)benzonitrile], the IC50 was 20 pM in series [1] and 80 pM in series [2]. Besides, the figures for the “Predicted Fmax” value in series [3] and in series [4] were 63% and 79%, respectively.
In the case of `CCNC(=O)OCc1ccc([C@H]2C[C@@]3(C)[C@@H](CC[C@@]3(O)C(F)(F)C(F)(F)F)[C@@H]3CCC4=CC(=O)CCC4=C32)cc1` [Example 41, ethylcarbamic acid 4-((8S,11R,13S,14S,17S)-17-hydroxy-13-methyl-3-oxo-17-pentafluoroethyl-2,3,6,7,8,11,12,13,14,15,16,17-dodecahydro-1H-cyclopenta[a]phenanthren-11-yl)benzyl ester], the IC50 in series [1] is 90 pM; in series [2], 100 pM. Further, in series [4], the “Predicted Fmax” value is 49%.
